This assay has as its system DP-independent nicotinic acid induced vasodilation. As to the kind of experiment: nicotinic acid induced vasodilation in mice genetically devoid of the DP receptor. The format is in vivo, mouse. Particulars: mice genetically devoid of the DP receptor (DP1), administration or pre-administration. As for the experimental part: Thus, some portion of nicotinic acid induced vasodilation may not be dependent on the DP receptor. This DP-independent vasodilation can be inhibited by the administration or pre-administration of aspirin, a COX-1/COX-II inhibitor, to the mice. Human doses range from about 20-25 mg to as high as about 650 mg, administered about one hour to about 30 minutes before the administration of nicotinic acid, up to simultaneous administration, and repeated as necessary up to about every four hours. Thus a combination of DP receptor antagonist and aspirin is particularly effective to suppress nicotinic acid induced flushing in humans, attenuating some or all of the flushing that is not suppressed by the […] or by aspirin alone.

Each structure is given as a SMILES string.

As for `CC(=O)Oc1ccccc1C(=O)O` [aspirin], the “inhibition of DP-independent nicotinic acid induced vasodilation” value was “inhibited”.
